In PMC9736855, “Discovery of 3-Amino-1H-pyrazole-Based Kinase Inhibitors to Illuminate the Understudied PCTAIRE Family” (International Journal of Molecular Sciences, 2022):

Experiments:
CDK16 = target: T1, CDK16 (Homo sapiens, UniProt Q00536); assay: DSF; assay type: binding; conditions: 10 μM compound
T1 construct: purchased in-house DSF panel (SGC Frankfurt)
From the text: (§1) To investigate the selectivity profile of the different series, a differential scanning fluorimetry (DSF) assay was used. This assay offers a rapid and sensitive screening method that determines the denaturation temperature of a protein in absence and presence of a compound. This assay format measures the fluorescence of a dye, which depends on the folding state of the protein. The difference between the melting temperature (ΔTm) in the absence and presence of the compound represents the binding strength to the protein.
(§2) Measurements were performed in duplicates.

CDK2 = target: T2, CDK2 (Homo sapiens, UniProt P24941); assay: DSF; assay type: binding; conditions: 10 μM compound
T2 construct: purchased in-house DSF panel (SGC Frankfurt)
From the text: as §1, §2

CDK16/Cyclin Y = target: T3, CDK16/Cyclin Y (Homo sapiens, UniProt Q00536); assay: NanoBRET; assay type: cell-based; conditions: Figure 7, 11-point dose-response in duplicates; read-out: NanoBRET EC50 ± SEM against CDK16
T3 construct: Full-length kinases were obtained as plasmids cloned in frame with a terminal NanoLuc-fusion; CS1810C178 (CCNY); host or cells: HEK293T
T3 sequence (Q00536 whole entry, the tested form may be a part): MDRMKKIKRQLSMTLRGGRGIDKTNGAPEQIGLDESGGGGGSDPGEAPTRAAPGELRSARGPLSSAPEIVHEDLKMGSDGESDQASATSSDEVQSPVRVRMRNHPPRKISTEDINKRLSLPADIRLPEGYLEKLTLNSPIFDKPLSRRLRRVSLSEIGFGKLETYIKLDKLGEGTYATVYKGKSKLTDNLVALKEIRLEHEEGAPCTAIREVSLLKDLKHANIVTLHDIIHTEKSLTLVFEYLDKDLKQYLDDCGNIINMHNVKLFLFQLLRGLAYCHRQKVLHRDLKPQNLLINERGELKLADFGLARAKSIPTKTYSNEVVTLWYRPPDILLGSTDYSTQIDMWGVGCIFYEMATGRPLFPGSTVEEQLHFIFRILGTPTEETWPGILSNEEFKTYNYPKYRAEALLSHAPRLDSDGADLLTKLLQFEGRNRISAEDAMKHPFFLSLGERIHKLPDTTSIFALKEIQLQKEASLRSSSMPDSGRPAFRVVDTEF
T3 sequence (Q8ND76 2-341 partner limits assumed): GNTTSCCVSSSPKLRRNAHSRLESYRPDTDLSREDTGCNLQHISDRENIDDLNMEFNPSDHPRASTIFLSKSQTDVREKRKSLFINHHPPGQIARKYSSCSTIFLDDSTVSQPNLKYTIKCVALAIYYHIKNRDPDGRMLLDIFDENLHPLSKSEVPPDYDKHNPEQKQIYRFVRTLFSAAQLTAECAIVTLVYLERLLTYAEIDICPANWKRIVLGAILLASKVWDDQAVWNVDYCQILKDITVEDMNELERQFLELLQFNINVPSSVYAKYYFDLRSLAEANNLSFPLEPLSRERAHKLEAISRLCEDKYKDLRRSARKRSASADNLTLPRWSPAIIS
Experimental: Next, to specifically quantify the outcome of the cellular activity of the compounds, a NanoBRET cellular target engagement assay was performed. The determination of the cellular potency on CDK16 correlated well with the corresponding DSF assay data (Figure S2). […] As mentioned before, the exchange from a methyl ester to an iso-propyl or tert-butyl ester led to a higher stabilization of the kinase in the DSF assay, which correlated with an increase in cellular potency as determined in the NanoBRET assay. […] The number of potential off-targets was low with 1 and 2 kinases with ΔTm >5 °C (Figure 4), highlighting these inhibitors for more comprehensive selectivity studied within the CDK and particular the TAIRE subfamily.
The assay was performed as described previously. In brief: Full-length kinases were obtained as plasmids cloned in frame with a terminal NanoLuc-fusion (Promega, Madison, WI, USA), as specified in table (Table S6). Plasmids were transfected into HEK293T cells using FuGENE HD (Promega, E2312) and proteins were allowed to express for 20h. Serially diluted inhibitor and NanoBRET Kinase Tracer (Promega) at a concentration determined previously as the KD,app (Table S5) were pipetted into white 384-well plates (Greiner 781207) using an Echo acoustic dispenser (Labcyte, San Jose, CA, USA). The corresponding protein-transfected cells were added and reseeded at a density of 2.5 × 10^5 cells/mL after trypsinization and resuspending in Opti-MEM without phenol red (Life Technologies, Carlsbad, CA, USA). The system was allowed to equilibrate for 2 h at 37 °C/5% CO2 prior to BRET measurements. To measure BRET, NanoBRET NanoGlo Substrate + Extracellular NanoLuc Inhibitor (Promega, N2540) was added as per the manufacturer’s protocol, and filtered luminescence was measured on a PHERAstar plate reader (BMG Labtech, Ortenberg, Germany) equipped with a luminescence filter pair (450 nm BP filter (donor) and 610 nm LP filter (acceptor)). Competitive displacement data were then graphed using GraphPad Prism 9 software using a normalized 3-parameter curve fit with the following equation: Y = 100/(1 + 10^(X–LogEC50)).

GSK3B = GSK3B (Homo sapiens, UniProt P49841); assay: DSF; assay type: binding; set-up: purchased in-house DSF panel (SGC Frankfurt); conditions: 10 μM compound
Chain of GSK3B (P49841 35-386): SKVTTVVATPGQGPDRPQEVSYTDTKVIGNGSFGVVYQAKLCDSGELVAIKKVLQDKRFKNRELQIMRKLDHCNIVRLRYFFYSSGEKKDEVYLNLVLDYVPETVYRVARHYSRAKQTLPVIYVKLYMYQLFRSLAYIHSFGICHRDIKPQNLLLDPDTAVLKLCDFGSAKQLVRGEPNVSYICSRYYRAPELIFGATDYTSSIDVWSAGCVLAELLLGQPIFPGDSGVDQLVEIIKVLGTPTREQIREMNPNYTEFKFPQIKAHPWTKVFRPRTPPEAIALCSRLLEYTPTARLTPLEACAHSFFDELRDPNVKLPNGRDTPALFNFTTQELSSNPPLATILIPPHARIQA
From the text: as §1, §2

T1 sequence (Q00536 163-478): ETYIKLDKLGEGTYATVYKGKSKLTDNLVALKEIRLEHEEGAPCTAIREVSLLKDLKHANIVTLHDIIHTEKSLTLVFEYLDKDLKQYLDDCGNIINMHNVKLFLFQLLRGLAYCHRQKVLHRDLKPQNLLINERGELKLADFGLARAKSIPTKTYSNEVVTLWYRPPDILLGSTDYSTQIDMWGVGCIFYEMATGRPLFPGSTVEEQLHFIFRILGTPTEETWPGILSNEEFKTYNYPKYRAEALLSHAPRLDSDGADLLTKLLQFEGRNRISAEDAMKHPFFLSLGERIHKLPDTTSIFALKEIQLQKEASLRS

Molecule COC(=O)c1cc(Nc2ccnc(Nc3ccc(CCNC(=O)OC(C)(C)C)cc3)n2)[nH]n1 [21a, methyl 5-((2-((4-(2-((tert-butoxycarbonyl)amino)ethyl)phenyl)amino)pyrimidin-4-yl)amino)-1H-pyrazole-3-carboxylate] has a ΔTm at 10 µM (CDK16) of 4.3 ± 0.4 °C, a ΔTm at 10 µM (CDK2) of 3.1 ± 0.2 °C and an EC50 (CDK16/Cyclin Y) of 652 ± 15.6 nM. It also gave a ΔTm at 10 µM (GSK3B) of 7.8 ± 0.2 °C.

In the case of COC(=O)c1cc(Nc2ccnc(NCc3ccc(N)cc3)n2)n[nH]1 [compound 25, methyl 3-((2-((4-aminobenzyl)amino)pyrimidin-4-yl)amino)-1H-pyrazole-5-carboxylate], the ΔTm at 10 µM (CDK16) is reported as 5.6 °C, the ΔTm at 10 µM (CDK2) is reported as 5.1 °C and the EC50 (CDK16/Cyclin Y) is reported as 400 ± 30.6 nM. It also gave a ΔTm at 10 µM (GSK3B) of 10.3 ± 0.1 °C.

Molecule CC(C)c1cc(Nc2ccnc(NCCCCCNC(=O)OC(C)(C)C)n2)[nH]n1 [39b, tert-butyl (5-((4-((3-isopropyl-1H-pyrazol-5-yl)amino)pyrimidin-2-yl)amino)pentyl)-carbamate] has a ΔTm at 10 µM (CDK16) of 8.6 ± 0.1 °C, a ΔTm at 10 µM (CDK2) of 9.5 ± 0.1 °C and an EC50 (CDK16/Cyclin Y) of 47 ± 4.1 nM. It also gave a ΔTm at 10 µM (GSK3B) of 6.2 ± 0.1 °C.

CC(C)(C)OC(=O)NCCc1ccc(Nc2nccc(Nc3cc(C4CC4)n[nH]3)n2)cc1 [11a, tert-butyl 4-((4-((3-cyclopropyl-1H-pyrazol-5-yl)amino)pyrimidin-2-yl)amino)phenethyl-carbamate] gave a ΔTm at 10 µM (CDK16) of 8.7 °C, a ΔTm at 10 µM (CDK2) of 12.3 °C and an EC50 (CDK16/Cyclin Y) of 35 nM. It also gave a ΔTm at 10 µM (GSK3B) of 8.2 ± 0.1 °C.

For COC(=O)c1cc(Nc2nc(NCCOCCNC(=O)OC(C)(C)C)ncc2Cl)[nH]n1 [22d, methyl 5-((2-((2-(2-((tert-butoxycarbonyl)amino)ethoxy)ethyl)amino)-5-chloropyrimidin-4-yl)amino)-1H-pyrazole-3-carboxylate], the ΔTm at 10 µM (CDK16) was 0.2 ± 0.2 °C, the ΔTm at 10 µM (CDK2) was 0.2 °C and the EC50 (CDK16/Cyclin Y) was 25000 ± 4220 nM. The ΔTm at 10 µM (GSK3B) was 2.1 ± 0.1 °C.

Cc1cc(Nc2ccnc(Nc3ccc(CCNC(=O)OC(C)(C)C)cc3)n2)[nH]n1 [38a, tert-butyl 4-((4-((3-methyl-1H-pyrazol-5-yl)amino)pyrimidin-2-yl)amino)phenethyl-carbamate] gave a ΔTm at 10 µM (CDK16) of 5.7 ± 0.2 °C, a ΔTm at 10 µM (CDK2) of 10.7 ± 0.1 °C and an EC50 (CDK16/Cyclin Y) of 388 ± 32 nM. The ΔTm at 10 µM (GSK3B) was 10.4 ± 0.1 °C.

CC(C)(C)OC(=O)NCCc1cccc(Nc2nccc(Nc3cc(C4CC4)n[nH]3)n2)c1 [11b, tert-butyl 3-((4-((3-cyclopropyl-1H-pyrazol-5-yl)amino)pyrimidin-2-yl)amino)phenethyl-carbamate] showed a ΔTm at 10 µM (CDK16) of 6.3 ± 0.3 °C, a ΔTm at 10 µM (CDK2) of 8.2 ± 0.1 °C and an EC50 (CDK16/Cyclin Y) of 124 ± 10.4 nM. For the same molecule, the ΔTm at 10 µM (GSK3B) was 7.2 ± 0.2 °C.

For CC(C)(C)OC(=O)NCCCCCNc1ncc(Cl)c(Nc2cc(C3CC3)n[nH]2)n1 [13c, tert-butyl (5-((5-chloro-4-((3-cyclopropyl-1H-pyrazol-5-yl)amino)pyrimidin-2-yl)amino)pentyl)carbamate], the ΔTm at 10 µM (CDK16) was 3.2 °C, the ΔTm at 10 µM (CDK2) was 5.1 ± 0.3 °C and the EC50 (CDK16/Cyclin Y) was 914 ± 11 nM. The ΔTm at 10 µM (GSK3B) was 5.9 ± 0.3 °C.

COC(=O)c1cc(Nc2nc(Nc3ccc(CCNC(=O)OC(C)(C)C)cc3)nc3ccccc23)[nH]n1 [23a, methyl 5-((2-((4-(2-((tert-butoxycarbonyl)amino)ethyl)phenyl)amino)quinazolin-4-yl)amino)-1H-pyrazole-3-carboxylate] showed a ΔTm at 10 µM (CDK16) of 3.4 ± 0.6 °C, a ΔTm at 10 µM (CDK2) of -0.1 ± 0.1 °C and an EC50 (CDK16/Cyclin Y) of 9360 ± 1020 nM. For the same molecule, the ΔTm at 10 µM (GSK3B) was 1 ± 0.1 °C.

With CC(=O)NCCCCCCNc1nccc(Nc2cc(C3CC3)n[nH]2)n1 [compound 15, N-(6-((4-((3-cyclopropyl-1H-pyrazol-5-yl)amino)pyrimidin-2-yl)amino)hexyl)acetamide] the ΔTm at 10 µM (CDK16) was 8.8 ± 0.1 °C, the ΔTm at 10 µM (CDK2) was 11.3 °C and the EC50 (CDK16/Cyclin Y) was 100 ± 7 nM. The ΔTm at 10 µM (GSK3B) was 7.9 ± 0.1 °C.

CC(C)(C)OC(=O)NCCOCCNc1nccc(Nc2cc(C3CC3)n[nH]2)n1 [11d, tert-butyl (2-(2-((4-((3-cyclopropyl-1H-pyrazol-5-yl)amino)pyrimidin-2-yl)amino)ethoxy)-ethyl)carbamate] showed a ΔTm at 10 µM (CDK16) of 7.3 ± 0.1 °C, a ΔTm at 10 µM (CDK2) of 6.3 ± 0.2 °C and an EC50 (CDK16/Cyclin Y) of 67 ± 1.3 nM. The ΔTm at 10 µM (GSK3B) was 5.9 ± 0.2 °C.
